How the values were obtained:
OPCs [1] = conditions: cells cultured 72 hrs with 1 μM staurosporine; background 10,000 cpm; Ebner 2000; cited from earlier work
[2] = tested on: oligodendrocyte progenitors; assay: Quantitative 3H-thymidine incorporation proliferation assay; format: cell-based; conditions: recombinant growth factor; background 500-1000 cpm without growth factor
Protocol: Proliferation assay: The ability of oligodendrocyte progenitors to generate a mitogenic response to specific ligands is measured in a quantitative ^3H-thymidine incorporation assay. Cells are exposed to growth factors, in a dose range that brackets the maximal response to FGF and PDGF, in order to determine the half-maximal response. Responses range from a background of 500-1000 cpm (no growth factor) to 10,000 cpm (recombinant PDGF-AA), and the assay is sufficiently sensitive to accurately detect partial mitogenic responses. All cell proliferation assays are optionally performed at least three independent times. For qualitative assays, cells are exposed to mitogens with 50 μM BrdU (Sigma) present for the final 4 hrs, and DNA synthesis is monitored by dual immunofluorescence for BrdU (Osterhout et al., J. Neurosci. 17:9122-9132 (1997)) and a second lineage marker.
Proliferation assays are performed on cells that have been removed from mitogens for 24 hrs prior to exposure to recombinant growth factors to reduce background levels of DNA synthesis. […] Nucleic acid is recovered using an automatic harvester (Brandel) and the incorporated radioactivity measured by scintillation counting. […]

OPCs [3] = conditions: background migration 1,000 cells/mm^2; Armstrong et al. 1990; cited from earlier work

Q: Which “32P incorporation into 3'-ends of DNA” value (OPCs [1]) does the source give for CN[C@@H]1C[C@H]2O[C@@](C)([C@@H]1OC)n1c3ccccc3c3c4c(c5c6ccccc6n2c5c31)C(=O)NC4 [staurosporine] here?
A: The value was 100,000 cpm.

Q: With “PDGF-AA: recombinant (human) polypeptide growth factor, oligodendrocyte progenitor cell mitogen” as the molecule, how does the “mitogenic response, 3H-thymidine incorporation” value [2] read?
A: Its value is 10,000 cpm.

Q: What about the “chemotaxis, cells migrated” value (OPCs [3]) of the same molecule?
A: The value was 4,000 cells/mm^2.

Reference: US8071376B2, “Production of oligodendrocytes from placenta-derived stem cells” (Anthrogenesis Corporation, priority 2005, dated 2011)
